This is an account of results in article PMC12641781, “Insights into Hepatic, Neuronal, and hERG Channel Safety of Plant-Derived Active Compounds” (Journal of Xenobiotics, 2025).

The subject of data set [1] is triple-negative breast cancer (TNBC) cells. Also noted: method as in PMID 29348769, PMID 31388314, PMID 40952293. The settings on record: cited from earlier work.
The subject of data set [2] is Differentiated ReNcell VM cells. Put plainly: Neuronal viability assay, differentiated cells (resazurin). It counts as cell-based. The settings on record: Homo sapiens, read-out: IC50, differentiated ReNcell VM cell viability. As for the experimental part:
ReNcell VM cells were seeded into Matrigel®-coated black, clear-bottom 96-well plates at a density of 3.0 × 10^4 cells per well for differentiation assays. The cells were maintained in ReNcell NSC Maintenance Medium (Merck Millipore, Burlington, MA, USA) without growth factors to induce differentiation. The culture medium was changed every two days for three weeks.
(§1) Differentiated ReNcell VM cells were seeded into Matrigel®-coated black, clear-bottom 96-well plates at densities of 3.0 × 10^4 per well. The ReNcell VM cells were incubated at 37 °C with 5% CO2 in the ReNcell Maintenance Media (Merck Millipore, MA, USA) without growth factor. The media was changed every two days for three weeks. Both cell types were treated with test compounds at 0.01, 0.1, 1, 10, and 100 μM. DMSO was used as the control for maximum cell viability, and Triton X-100 was the control for minimum viability. After 20 h of incubation at 37 °C with 5% CO2. Cell viability was assessed using the CellTiter-Blue® Cell Resazurin reagent.
Background: Alamar Blue is a resazurin reagent that responds to reducing activity.

For data set [3] the following is noted: AL single oral dose of 1000 mg/kg body weight (equivalent to 48.4 mg of ATD), healthy Thai subjects; cited from earlier work.
Data set [4] deals with Undifferentiated ReNcell VM cells. In words: Neuronal viability assay, undifferentiated cells (resazurin). It counts as cell-based, human. The settings on record: for pIC50: 24 h, read-out: IC50, undifferentiated ReNcell VM cell viability; for Inhibition of undifferentiated ReNcell NSC viability: at concentrations up to 100 µM, compared to Triton X-100. As for the experimental part:
Undifferentiated ReNcell VM cells were seeded into Matrigel®-coated black, clear-bottom 96-well plates at densities of 1.5 × 10^4 per well. The cells were maintained in ReNcell NSC Maintenance Media (Merck Millipore, MA, USA), supplemented with 10% EGF and 1% penicillin/streptomycin, and were incubated at 37 °C with 5% CO2 for 24 h.
as §1

For data set [5], the system named is HepG2 cells. Also noted: method as in PMID 29348769, PMID 31388314, PMID 40952293. The settings on record: cited from earlier work.
Data set [6] relates to HepG2 cells. Put plainly: Hepatocellular viability assay (resazurin reduction). It is filed as cell-based, Human. The settings on record: for pIC50: Homo sapiens, read-out: IC50, HepG2 cell viability. As to the method:
HepG2 cells (1.5 × 10^4 cells per 100 µL) were seeded into black, clear-bottom 96-well plates and incubated at 37 °C with 5% CO2 for 24 h. The test compounds were prepared in complete media at final concentrations of 0.01, 0.1, 1, 10, and 100 μM and added to each well. For the negative control, 0.2% (v/v) DMSO was used to represent maximum viability, while 0.01% (v/v) Triton X-100 was used as the positive control for minimum viability. The plates were incubated at 37 °C under 5% CO2. After 20 h of incubation, 20% (v/v) CellTiter-Blue Cell Resazurin reagent was added to each well, followed by an additional 2–4 h of incubation. Fluorescence intensity, indicating resorufin levels, was measured at 590 nm using a Synergy H1 reader was obtained from Agilent Technologies (Santa Clara, CA, USA). Each data point was normalized based on the maximum and minimum cell viability data and expressed as % Relative viability using the following formula: % Relative viability=(Experimental data−Minimal viability data)/(Maximal viability data−Minimal viability data)×100

For data set [7] the following is noted: single oral dose of rikkunshito (7.5 g/day), healthy Japanese subjects; cited from earlier work.
Another data set has as its target T1, hERG (Homo sapiens, UniProt Q12809).
T1 construct: host or cells: HEK293 cells stably overexpressing hERG
In words: hERG inhibition assay by automated patch-clamp electrophysiology in hERG-overexpressing HEK293 cells. It is filed as cell-based. As to the method:
hERG channel inhibition assay was performed using patch-clamp electrophysiology. HEK293 cells stably overexpressing hERG channels (Eurofins Scientific, Luxembourg) were cultured in Dulbecco’s Modified Eagle Medium F-12 (GIBCO, Carlsbad, CA, USA) supplemented with 10% (v/v) fetal bovine serum (FBS) and 1% penicillin/streptomycin at 37 °C with 5% CO2 until reaching approximately 80% confluency. Cells were then subcultured using trypsin (HyClone, Marlborough, MA, USA), to enzymatically detach adherent HEK293 cells, centrifuged, and resuspended in the External standard buffer (Nanion Technologies, Munich, Germany).
A gigaohm seal was formed after cell seeding in the NPC-16 chip (Nanion Technologies) wells. Brief suction pulses were applied to achieve whole-cell configuration. The hERG channel activity was assessed using a voltage protocol consisting of steps to −80 mV, −40 mV, +40 mV, −40 mV, and back to −80 mV, triggering tail currents. Each well’s peak hERG tail current served as the baseline activity level. To evaluate the inhibitory effects of the six tested compounds, their stock solutions ([…]) were diluted with the external standard buffer to final concentrations of 100 µM, 10 µM, 1 µM, 0.1 µM, and 0.01 µM, and automatically applied to the wells. Subsequently, hERG channel activity was measured again using the same voltage protocol. The relative changes in hERG activity induced by the compounds were calculated and expressed as percentages using the following formula:% hERG activity = (Peak hERG tail current after compound treatment/Peak hERG tail current before compound treatment) × 100
A general note: The hERG channel carries a current that helps repolarise heart muscle cells.

For data set [8] the following is noted: dose of 10 g, healthy volunteers; cited from earlier work.
Another data set concerns CYP2E1. Also noted: method as in PMID 24146513. The settings on record: in the Yahom Tultavai formulation; cited from earlier work.
For a further data set, the system named is CYP2D6. Also noted: method as in PMID 37553989. The settings on record: EPMC as major active compound of the Dephrungsith formulation; cited from earlier work.
The subject of another data set is CYP1A1. Set-up: method as in PMID 24146513. The settings on record: in the Yahom Tultavai formulation; cited from earlier work.
The test system of a further data set is CYP1A2. Set-up: method as in PMID 24146513. The settings on record: in the Yahom Tultavai formulation; cited from earlier work.
On the set-up of data set [9]: method as in PMID 18039808. The settings on record: oral 500 mg/kg dose in animals; cited from earlier work.
The conditions of data set [10]: rats, oral dose of 100 mg/kg body weight; read-out: plasma Cmax; cited from earlier work.
Where [11] appears, read: differentiated ReNcell VM cells (three weeks without growth factor), 24 h, resazurin assay.
Setting [12] is: Homo sapiens, undifferentiated ReNcell VM cells, resazurin assay, 0.01-100 μM.
The mark [13] stands for this setting: HepG2 cells, 24 h, resazurin assay, 0.01-100 μM.
Setting [14] is: hERG-overexpressing HEK293 cells, peak tail current, automated patch clamp, read-out: IC50, hERG channel activity.
The mark [15] stands for this setting: Homo sapiens, ReNcell VM, undifferentiated ReNcell VM cells, resazurin assay, 0.01-100 μM.

pIC50: −log10 of the molar value. Values after ≈ are worked out from the molar mass of the structure shown. Read-outs that look alike come from different tables or passages of the source.

T1 sequence (Q12809 whole entry): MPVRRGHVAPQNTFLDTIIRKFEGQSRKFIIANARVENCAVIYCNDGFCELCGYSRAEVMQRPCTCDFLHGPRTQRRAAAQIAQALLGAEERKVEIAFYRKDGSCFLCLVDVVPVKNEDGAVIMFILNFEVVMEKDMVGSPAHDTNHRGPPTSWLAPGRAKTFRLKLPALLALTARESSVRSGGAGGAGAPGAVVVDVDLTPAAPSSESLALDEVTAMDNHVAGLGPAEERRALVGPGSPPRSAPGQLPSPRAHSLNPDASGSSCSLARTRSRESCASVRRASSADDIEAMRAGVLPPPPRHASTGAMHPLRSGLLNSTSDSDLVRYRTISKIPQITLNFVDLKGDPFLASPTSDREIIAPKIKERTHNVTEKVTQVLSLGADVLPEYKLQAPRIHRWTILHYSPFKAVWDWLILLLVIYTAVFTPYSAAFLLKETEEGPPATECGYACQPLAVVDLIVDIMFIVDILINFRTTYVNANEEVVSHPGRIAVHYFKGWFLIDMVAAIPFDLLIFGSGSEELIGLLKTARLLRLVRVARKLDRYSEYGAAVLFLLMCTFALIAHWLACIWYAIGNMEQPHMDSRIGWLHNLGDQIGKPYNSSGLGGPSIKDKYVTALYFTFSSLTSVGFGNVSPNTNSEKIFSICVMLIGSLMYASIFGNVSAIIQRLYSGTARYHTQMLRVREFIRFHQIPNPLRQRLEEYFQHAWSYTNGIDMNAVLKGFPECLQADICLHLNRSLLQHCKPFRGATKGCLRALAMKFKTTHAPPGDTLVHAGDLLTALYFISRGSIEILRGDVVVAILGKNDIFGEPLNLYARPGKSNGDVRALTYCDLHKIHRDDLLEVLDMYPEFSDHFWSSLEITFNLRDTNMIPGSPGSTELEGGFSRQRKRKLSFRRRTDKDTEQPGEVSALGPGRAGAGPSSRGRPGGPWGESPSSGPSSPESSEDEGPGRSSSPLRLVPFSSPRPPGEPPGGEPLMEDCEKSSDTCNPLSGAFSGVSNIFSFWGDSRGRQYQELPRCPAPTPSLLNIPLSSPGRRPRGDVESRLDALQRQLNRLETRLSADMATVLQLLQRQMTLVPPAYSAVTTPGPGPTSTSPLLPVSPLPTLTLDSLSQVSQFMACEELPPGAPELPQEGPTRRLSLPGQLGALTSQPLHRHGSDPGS

Usually pIC50 stands for −log10 of the IC50, conventionally taken in molar units. With `C/C=C/C#CC#C/C=C/c1ccco1` [ATD, Atractylodin], the “IC50, triple-negative breast cancer (TNBC) cells” value in [1] is given as 92.11 µg/mL (≈ 505 µM). In addition, the pIC50 in data set [2] (ReNcell VM) is less than 4.00; in [4] (Homo sapiens, ReNcell VM) it was less than 4.00; in the data set on HepG2 cells [6] (HepG2, 24 h), less than 4.00; against hERG it was 4.58; on hERG (human), 4.65. The “maximal plasma concentration (Cmax)” value in [3] was 50.35 (13.8–52.90) ng/mL; in data set [7], 0.002 to 20 ng/mL. Further, the “Inhibition of undifferentiated ReNcell NSC viability” value in [4] is reported as “did not inhibit”. Also, in the data set on HepG2 cells [5], the “IC50, inhibitory effects on HepG2 cells” value is on record as 26.19 µg/mL (≈ 144 µM).

As for `C=C1CCC[C@]2(C)CC[C@@H](C(C)(C)O)C[C@@H]12` [BEU, β-eudesmol], the negative-log IC50 (pIC50) in data set [2] (setting [11]) was less than 4.00; in data set [4] (setting [12]), less than 4.00; in the data set with HepG2 cells [6] (setting [13]), less than 4.00; on hERG (setting [14]), 4.48. Further, the “Inhibition of undifferentiated ReNcell NSC viability” value in [4] is “did not inhibit”.

Consider `COc1cc(/C=C/C(=O)CC(=O)/C=C/c2ccc(O)c(OC)c2)ccc1O` [CUR, Curcumin], for which, in data set [8], the “plasma Cmax” value is 2300 ng/mL. Further, the negative-log IC50 (pIC50) in data set [4] (setting [15]) was 4.68; in data set [4] (undifferentiated ReNcell VM cells, resazurin assay, 0.01-100 μM), 4.67; in the data set with HepG2 cells [6] (setting [13]), 4.68.

As for `CCOC(=O)/C=C/c1ccc(OC)cc1` [EPMC, ethyl-p-methoxycinnamate], the negative logarithm of the IC50 (pIC50) in [2] (setting [11]) is less than 4.00; in data set [4] (setting [15]) it was less than 4.00; in the data set with HepG2 cells [6] (HepG2, 24 h, HepG2 cells, 24 h, resazurin assay, 0.01-100 μM) it was less than 4.00; at hERG (setting [14]), 4.28. Besides, the “Inhibition of undifferentiated ReNcell NSC viability” value in data set [4] is listed as “did not inhibit”. Moreover, in the data set with CYP2E1, the “CYP2E1 inhibition in vivo” value is given as “inhibits”. Also, the “CYP2D6 inhibition in vitro” value in the data set on CYP2D6 is given as “potently inhibits”. The “CYP1A1 inhibition in vivo” value in the data set with CYP1A1 is “inhibits”. In addition, the “CYP1A2 inhibition in vivo” value in the data set with CYP1A2 was “inhibits”.

Consider `CCC/C=C1\OC(=O)C2=C1CCC=C2` [LIG, ligustilide], for which the pIC50 in data set [2] (setting [11]) is less than 4.00; in data set [4] (setting [12]), less than 4.00; with HepG2 cells [6] (setting [13]), less than 4.00; on hERG (setting [14]), 4.43. Also, in [9], the “plasma Cmax” value was 660 ng/mL. The “Inhibition of undifferentiated ReNcell NSC viability” value in data set [4] is reported as “did not inhibit”.

Broadly, the Cmax is the highest concentration seen after dosing. As for `COc1c(O)cc2oc3cc(O)c(CC=C(C)C)c(O)c3c(=O)c2c1CC=C(C)C` [αMG, α-mangostin], the negative logarithm of the IC50 (pIC50) in [2] (setting [11]) is 5.22; at hERG (setting [14]), less than 4.00. Further, the Cmax in [10] is 1380 nM.

For the compound triton X-100 [reference compound], in the data set with HepG2 cells [6], the “HepG2 cell viability compared to the 0.2% DMSO-treated group” value is reported as “significant decrease in cell viability”.
